According to ChEMBL document CHEMBL4507277:

Legend:
[1] = molecular target: 5-hydroxytryptamine receptor 1A (Homo sapiens) (UniProt P08908); settings: Compound concentration 10.0 uM
[2] = molecular target: D(1A) dopamine receptor (Homo sapiens) (UniProt P21728); settings: Compound concentration 10.0 uM
[3] = molecular target: Beta-1 adrenergic receptor (Homo sapiens) (UniProt P08588); settings: Compound concentration 10.0 uM
[4] = molecular target: Thromboxane-A synthase (Homo sapiens) (UniProt P24557); settings: Compound concentration 10.0 uM
[5] = molecular target: Opioid receptor (Rattus norvegicus) (UniProt P33533+P34975+P33535); settings: Compound concentration 10.0 uM
[6] = molecular target: Histamine H1 receptor (Homo sapiens) (UniProt P35367); settings: Compound concentration 10.0 uM
[7] = molecular target: Androgen receptor (Rattus norvegicus) (UniProt P15207); settings: Compound concentration 10.0 uM
[8] = molecular target: T1, D(4) dopamine receptor (Homo sapiens) (UniProt P21917); settings: Compound concentration 10.0 uM
T1 sequence (whole entry): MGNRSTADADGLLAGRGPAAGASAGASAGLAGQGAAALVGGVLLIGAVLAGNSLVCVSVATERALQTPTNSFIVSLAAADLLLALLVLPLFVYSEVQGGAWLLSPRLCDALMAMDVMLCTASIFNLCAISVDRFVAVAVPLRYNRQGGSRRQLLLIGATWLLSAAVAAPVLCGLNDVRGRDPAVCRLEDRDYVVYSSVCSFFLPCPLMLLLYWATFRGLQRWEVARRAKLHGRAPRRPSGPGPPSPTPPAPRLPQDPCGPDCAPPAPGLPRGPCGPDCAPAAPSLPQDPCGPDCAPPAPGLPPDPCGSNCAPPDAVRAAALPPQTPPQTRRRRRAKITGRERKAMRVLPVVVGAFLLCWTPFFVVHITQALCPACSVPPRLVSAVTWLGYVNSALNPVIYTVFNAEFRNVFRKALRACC

[9] = molecular target: ATP-sensitive inward rectifier potassium channel 1 isoform X1 (Mesocricetus auratus) (UniProt A0A1U8CU73); settings: Compound concentration 10.0 uM
[10] = molecular target: Adrenergic receptor alpha-1 (Rattus norvegicus) (UniProt P15823+P23944+P43140); settings: Compound concentration 10.0 uM
[11] = molecular target: Sodium-dependent serotonin transporter (Homo sapiens) (UniProt P31645); settings: Compound concentration 10.0 uM
[12] = molecular target: Interstitial collagenase (Homo sapiens) (UniProt P03956); settings: Compound concentration 10.0 uM
[13] = molecular target: Acetylcholine receptor subunit alpha (Homo sapiens) (UniProt P02708); settings: Compound concentration 10.0 uM
[14] = molecular target: D(3) dopamine receptor (Homo sapiens) (UniProt P35462); settings: Compound concentration 10.0 uM
[15] = molecular target: Sodium-dependent noradrenaline transporter (Homo sapiens) (UniProt P23975); settings: Compound concentration 10.0 uM
[16] = molecular target: Adrenergic receptor alpha-2 (Rattus norvegicus) (UniProt P22086+P19328+P22909); settings: Compound concentration 10.0 uM
[17] = molecular target: Type-1 angiotensin II receptor (Oryctolagus cuniculus) (UniProt P34976); settings: Homo sapiens; Compound concentration 10.0 uM
[18] = molecular target: Alpha-1A adrenergic receptor (Homo sapiens) (UniProt P35348); settings: Compound concentration 10.0 uM
[19] = molecular target: 5-hydroxytryptamine receptor 4 (Cavia porcellus) (UniProt O70528); settings: Compound concentration 10.0 uM
[20] = molecular target: Platelet-activating factor receptor (Homo sapiens) (UniProt P25105); settings: Compound concentration 10.0 uM
[21] = molecular target: Neutrophil elastase (Homo sapiens) (UniProt P08246); settings: Compound concentration 10.0 uM
[22] = molecular target: Nitric oxide synthase 3 (Bos taurus) (UniProt P29473); settings: Compound concentration 10.0 uM
[23] = molecular target: Gamma-aminobutyric acid receptor subunit beta-1 (Homo sapiens) (UniProt P18505); settings: Rattus norvegicus; Compound concentration 10.0 uM
[24] = molecular target: Muscarinic acetylcholine receptor (Rattus norvegicus) (UniProt P08482+P08483+P08485+P08911+P10980); settings: Compound concentration 10.0 uM
[25] = molecular target: Glutamate receptor ionotropic, NMDA 1 (Rattus norvegicus) (UniProt P35439); settings: Compound concentration 10.0 uM
[26] = molecular target: Serotonin 1 (5-HT1) receptor (Rattus norvegicus) (UniProt P28564+P30940+P19327+P28565); settings: Compound concentration 10.0 uM
[27] = molecular target: cGMP-inhibited 3',5'-cyclic phosphodiesterase 3A (Homo sapiens) (UniProt Q14432); settings: Compound concentration 10.0 uM
[28] = molecular target: T2, 5-hydroxytryptamine receptor 3A (Homo sapiens) (UniProt P46098); settings: Compound concentration 10.0 uM
T2 sequence (whole entry): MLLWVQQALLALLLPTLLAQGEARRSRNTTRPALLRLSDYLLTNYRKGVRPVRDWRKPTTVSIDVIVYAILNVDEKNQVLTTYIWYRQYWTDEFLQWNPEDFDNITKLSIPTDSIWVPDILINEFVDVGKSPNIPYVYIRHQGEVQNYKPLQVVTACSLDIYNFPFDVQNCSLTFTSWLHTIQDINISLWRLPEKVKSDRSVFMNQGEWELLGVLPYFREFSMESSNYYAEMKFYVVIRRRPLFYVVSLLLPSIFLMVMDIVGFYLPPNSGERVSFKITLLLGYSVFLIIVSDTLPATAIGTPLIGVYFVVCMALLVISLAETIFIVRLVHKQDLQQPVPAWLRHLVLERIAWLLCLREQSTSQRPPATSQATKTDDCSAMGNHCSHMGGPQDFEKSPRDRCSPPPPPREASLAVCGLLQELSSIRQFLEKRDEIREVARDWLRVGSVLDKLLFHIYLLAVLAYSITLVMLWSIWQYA

[29] = molecular target: Sodium/potassium-transporting ATPase subunit alpha-1 (Sus scrofa) (UniProt P05024); settings: Compound concentration 10.0 uM

5-hydroxytryptamine receptor 1A (Homo sapiens), sequence (P08908 whole entry): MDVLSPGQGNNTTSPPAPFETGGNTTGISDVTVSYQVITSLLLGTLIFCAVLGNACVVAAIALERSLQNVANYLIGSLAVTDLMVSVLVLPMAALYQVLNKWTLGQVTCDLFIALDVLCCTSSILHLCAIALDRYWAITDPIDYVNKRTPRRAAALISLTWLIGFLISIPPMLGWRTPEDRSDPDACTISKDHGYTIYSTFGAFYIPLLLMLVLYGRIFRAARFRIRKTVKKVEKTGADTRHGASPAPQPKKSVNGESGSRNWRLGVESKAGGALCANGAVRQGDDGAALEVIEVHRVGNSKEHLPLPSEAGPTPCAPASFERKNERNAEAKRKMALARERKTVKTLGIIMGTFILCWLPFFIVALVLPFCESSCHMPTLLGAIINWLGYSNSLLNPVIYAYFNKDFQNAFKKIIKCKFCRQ
D(3) dopamine receptor (Homo sapiens), sequence (P35462 whole entry): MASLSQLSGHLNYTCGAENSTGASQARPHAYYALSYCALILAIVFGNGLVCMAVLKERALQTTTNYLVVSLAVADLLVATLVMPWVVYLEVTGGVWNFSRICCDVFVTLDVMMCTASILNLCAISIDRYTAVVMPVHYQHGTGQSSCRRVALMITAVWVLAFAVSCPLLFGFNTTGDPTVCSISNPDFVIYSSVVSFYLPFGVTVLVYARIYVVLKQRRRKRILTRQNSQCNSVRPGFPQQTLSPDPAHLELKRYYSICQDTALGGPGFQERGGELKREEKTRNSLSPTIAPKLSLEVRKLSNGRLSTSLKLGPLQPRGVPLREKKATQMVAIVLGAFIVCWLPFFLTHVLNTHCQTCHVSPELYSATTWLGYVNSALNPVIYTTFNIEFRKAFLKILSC
Platelet-activating factor receptor (Homo sapiens), sequence (P25105 whole entry): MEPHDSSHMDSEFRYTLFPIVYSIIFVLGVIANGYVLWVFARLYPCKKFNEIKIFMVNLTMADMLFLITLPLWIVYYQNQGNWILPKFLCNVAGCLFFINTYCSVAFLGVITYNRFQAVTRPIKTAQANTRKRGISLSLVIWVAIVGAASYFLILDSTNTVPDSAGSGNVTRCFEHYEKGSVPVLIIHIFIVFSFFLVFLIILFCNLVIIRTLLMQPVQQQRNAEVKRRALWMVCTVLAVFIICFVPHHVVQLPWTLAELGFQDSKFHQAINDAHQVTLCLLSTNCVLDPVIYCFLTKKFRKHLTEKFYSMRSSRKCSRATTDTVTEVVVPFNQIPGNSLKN
Sodium-dependent serotonin transporter (Homo sapiens), sequence (P31645 whole entry, looked up): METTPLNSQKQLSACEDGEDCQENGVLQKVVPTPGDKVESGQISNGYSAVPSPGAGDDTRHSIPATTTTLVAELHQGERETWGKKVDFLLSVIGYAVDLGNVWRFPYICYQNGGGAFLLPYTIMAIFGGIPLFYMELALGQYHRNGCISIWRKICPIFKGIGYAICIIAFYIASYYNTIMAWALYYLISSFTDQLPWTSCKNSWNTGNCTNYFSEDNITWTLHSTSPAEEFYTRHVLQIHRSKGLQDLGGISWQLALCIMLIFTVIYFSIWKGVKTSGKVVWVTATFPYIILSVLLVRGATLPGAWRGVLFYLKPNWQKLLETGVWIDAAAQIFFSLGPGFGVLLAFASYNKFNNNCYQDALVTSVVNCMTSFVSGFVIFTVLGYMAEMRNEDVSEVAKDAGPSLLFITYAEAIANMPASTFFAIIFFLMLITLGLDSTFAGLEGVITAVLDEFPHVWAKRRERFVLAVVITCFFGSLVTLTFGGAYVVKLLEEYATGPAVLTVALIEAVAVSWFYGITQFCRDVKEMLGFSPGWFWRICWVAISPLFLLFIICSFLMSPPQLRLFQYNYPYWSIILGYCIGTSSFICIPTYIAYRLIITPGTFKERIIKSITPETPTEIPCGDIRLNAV
Androgen receptor (Rattus norvegicus), sequence (P15207 whole entry S389L): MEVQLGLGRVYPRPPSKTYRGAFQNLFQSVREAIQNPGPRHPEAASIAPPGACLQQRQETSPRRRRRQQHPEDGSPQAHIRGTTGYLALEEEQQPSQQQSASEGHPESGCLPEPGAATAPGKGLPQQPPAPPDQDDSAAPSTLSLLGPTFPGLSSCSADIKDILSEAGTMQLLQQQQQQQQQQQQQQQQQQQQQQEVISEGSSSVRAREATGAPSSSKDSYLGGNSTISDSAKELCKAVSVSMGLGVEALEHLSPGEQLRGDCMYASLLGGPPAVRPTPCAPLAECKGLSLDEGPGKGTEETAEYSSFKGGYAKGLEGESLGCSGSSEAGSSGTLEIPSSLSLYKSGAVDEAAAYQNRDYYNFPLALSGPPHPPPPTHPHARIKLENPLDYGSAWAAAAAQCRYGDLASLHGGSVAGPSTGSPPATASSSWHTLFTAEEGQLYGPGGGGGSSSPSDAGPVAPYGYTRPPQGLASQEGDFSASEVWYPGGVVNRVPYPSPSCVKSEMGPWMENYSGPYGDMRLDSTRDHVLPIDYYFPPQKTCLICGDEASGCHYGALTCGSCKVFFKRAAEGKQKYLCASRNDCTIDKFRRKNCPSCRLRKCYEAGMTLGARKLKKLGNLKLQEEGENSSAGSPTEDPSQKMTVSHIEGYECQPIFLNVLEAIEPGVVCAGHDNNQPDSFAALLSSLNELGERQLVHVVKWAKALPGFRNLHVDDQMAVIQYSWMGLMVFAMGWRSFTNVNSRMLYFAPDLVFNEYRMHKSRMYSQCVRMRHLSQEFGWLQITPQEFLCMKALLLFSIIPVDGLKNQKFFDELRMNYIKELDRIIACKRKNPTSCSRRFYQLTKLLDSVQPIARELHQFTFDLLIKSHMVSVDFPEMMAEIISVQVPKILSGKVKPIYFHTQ
Gamma-aminobutyric acid receptor subunit beta-1 (Homo sapiens), sequence (P18505 whole entry): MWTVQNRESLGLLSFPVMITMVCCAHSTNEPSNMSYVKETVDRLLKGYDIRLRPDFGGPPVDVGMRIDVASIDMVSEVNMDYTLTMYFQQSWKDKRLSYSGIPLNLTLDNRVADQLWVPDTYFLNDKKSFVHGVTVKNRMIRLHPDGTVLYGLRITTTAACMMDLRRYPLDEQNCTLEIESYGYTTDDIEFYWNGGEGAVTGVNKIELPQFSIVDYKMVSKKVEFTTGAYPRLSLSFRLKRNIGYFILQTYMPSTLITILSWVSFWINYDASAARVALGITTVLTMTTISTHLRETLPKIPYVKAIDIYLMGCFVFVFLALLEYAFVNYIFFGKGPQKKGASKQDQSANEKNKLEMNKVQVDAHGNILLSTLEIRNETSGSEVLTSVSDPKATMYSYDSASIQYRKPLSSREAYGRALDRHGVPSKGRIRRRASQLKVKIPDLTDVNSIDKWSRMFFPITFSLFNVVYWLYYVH
Acetylcholine receptor subunit alpha (Homo sapiens), sequence (P02708 whole entry): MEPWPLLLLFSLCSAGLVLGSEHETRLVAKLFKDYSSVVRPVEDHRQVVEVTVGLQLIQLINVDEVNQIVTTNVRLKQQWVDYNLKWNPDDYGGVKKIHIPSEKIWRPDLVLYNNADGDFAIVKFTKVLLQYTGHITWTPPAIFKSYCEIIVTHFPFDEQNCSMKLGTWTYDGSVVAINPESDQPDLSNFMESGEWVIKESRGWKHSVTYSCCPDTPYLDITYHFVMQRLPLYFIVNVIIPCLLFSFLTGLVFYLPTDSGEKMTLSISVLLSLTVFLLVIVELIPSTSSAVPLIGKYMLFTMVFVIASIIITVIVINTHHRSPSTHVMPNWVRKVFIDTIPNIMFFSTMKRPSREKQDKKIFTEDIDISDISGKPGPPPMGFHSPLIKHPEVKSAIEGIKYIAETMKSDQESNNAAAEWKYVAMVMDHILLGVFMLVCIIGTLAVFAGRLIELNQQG
Beta-1 adrenergic receptor (Homo sapiens), sequence (P08588 whole entry, looked up): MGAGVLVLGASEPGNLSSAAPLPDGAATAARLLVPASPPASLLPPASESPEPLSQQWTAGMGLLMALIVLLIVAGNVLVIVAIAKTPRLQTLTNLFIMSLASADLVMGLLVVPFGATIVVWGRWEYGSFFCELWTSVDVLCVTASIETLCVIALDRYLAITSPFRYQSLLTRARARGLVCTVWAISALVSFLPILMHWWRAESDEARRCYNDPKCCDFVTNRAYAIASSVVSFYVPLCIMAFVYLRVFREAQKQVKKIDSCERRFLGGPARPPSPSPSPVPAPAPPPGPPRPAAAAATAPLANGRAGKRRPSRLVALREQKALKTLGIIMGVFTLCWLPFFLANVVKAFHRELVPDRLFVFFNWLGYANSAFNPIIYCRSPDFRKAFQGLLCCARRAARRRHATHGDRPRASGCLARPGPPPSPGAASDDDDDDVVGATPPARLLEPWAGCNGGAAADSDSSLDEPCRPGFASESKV
Sodium-dependent noradrenaline transporter (Homo sapiens), sequence (P23975 whole entry): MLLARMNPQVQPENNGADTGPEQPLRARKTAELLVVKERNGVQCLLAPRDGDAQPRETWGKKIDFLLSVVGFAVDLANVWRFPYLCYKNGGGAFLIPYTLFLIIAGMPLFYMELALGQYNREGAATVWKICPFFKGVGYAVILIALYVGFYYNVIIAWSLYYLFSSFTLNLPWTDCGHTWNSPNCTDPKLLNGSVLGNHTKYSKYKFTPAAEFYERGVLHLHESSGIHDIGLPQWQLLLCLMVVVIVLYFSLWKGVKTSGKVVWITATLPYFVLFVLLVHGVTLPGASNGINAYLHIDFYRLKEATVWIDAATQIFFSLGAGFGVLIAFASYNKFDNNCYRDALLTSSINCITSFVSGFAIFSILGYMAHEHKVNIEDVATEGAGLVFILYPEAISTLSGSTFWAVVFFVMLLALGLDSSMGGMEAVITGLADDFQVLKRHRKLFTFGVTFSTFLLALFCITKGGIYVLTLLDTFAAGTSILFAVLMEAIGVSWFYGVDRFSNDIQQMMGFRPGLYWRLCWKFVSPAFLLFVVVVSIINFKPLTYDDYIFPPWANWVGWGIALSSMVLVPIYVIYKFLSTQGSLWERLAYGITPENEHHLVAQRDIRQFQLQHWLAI
Neutrophil elastase (Homo sapiens), sequence (P08246 whole entry): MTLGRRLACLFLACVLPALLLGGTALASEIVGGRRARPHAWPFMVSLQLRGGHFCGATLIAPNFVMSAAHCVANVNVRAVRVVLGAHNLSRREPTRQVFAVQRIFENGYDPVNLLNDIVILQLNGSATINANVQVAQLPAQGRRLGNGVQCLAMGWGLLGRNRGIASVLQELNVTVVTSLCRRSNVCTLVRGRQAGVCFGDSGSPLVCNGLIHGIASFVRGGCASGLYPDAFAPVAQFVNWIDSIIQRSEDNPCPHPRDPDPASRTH

CCS(=O)(=O)c1cc2cc(C[C@@](O)(CC(C)(C)c3ccc(F)cc3C(N)=O)C(F)(F)F)[nH]c2cn1
inactive: inhibition [1] -7.37% | inhibition [2] 2.6% | inhibition [3] -8.85%

CCS(=O)(=O)c1cc2cc(C[C@](O)(CC(C)(C)c3ccc(F)cc3C(N)=O)C(F)(F)F)[nH]c2cn1
inactive: residual activity [4] 93% | residual activity [5] 95% | residual activity [6] 100% | residual activity [7] 101% | residual activity [8] 104% | residual activity [9] 104% | residual activity [10] 89% | residual activity [11] 99% | residual activity [12] 94% | residual activity [13] 101% | residual activity [14] 81% | residual activity [15] 102% | residual activity [16] 106% | residual activity [17] 96% | inhibition [18] -0.31% | residual activity [19] 89% | residual activity [20] 95% | residual activity [21] 87% | residual activity [22] 85% | residual activity [23] 75% | residual activity [24] 103% | residual activity [25] 103% | residual activity [26] 118% | residual activity [27] 82% | residual activity [28] 100% | residual activity [29] 115%
